Here are results for 24 compounds from US20250009742A1 (priority 2021, published 2025).

For series [1], the system named is intracellular HBV DNA. The series is described as follows: Real-time PCR for intracellular HBV DNA in HepAD38 cells. Type of series: cell-based. Particulars: Hepatitis B virus, HePAD38, 65 h, 65 hours treatment. (In general: In qPCR the cycle at which signal appears reflects the starting amount.)
The nature of series [2]: Cell viability assay (EZ-Cytox), cytotoxicity. The format is cell-based. Particulars: human, HepAD38 cells; for viability at 65 h, 100 µM: read-out: Cytotoxicity % Livability (@100 μM). As to the method: HepAD38 cells were cultured for 2 days in Dulbecco's Modified Eagle's medium (Welgene, LM001-05) supplemented with 10% FBS without tetracycline. […] After 65 hours of treatment, viability was measured using EZ-Cytox cell viability assay kit (Daeil Lab Service) according to the manufacturer's instructions. The absorbance was measured at 450 nm using a spectrophotometer (Spark, Tecan).

Molecules are shown by their SMILES.

The term IC50 denotes the concentration that inhibits the measured activity by half. As a reminder, the CC50 is the concentration at which the toxic effect on the cells reaches its halfway point. Lower therefore signals harm at low concentration. The compound `COc1ccc(N(Cc2n[nH]c(C(F)(F)F)c2C)C(=O)Nc2ccc(F)c(Cl)c2)cn1` [Example 78, 3-(3-chloro-4-fluorophenyl)-1-(6-methoxypyridin-3-yl)-1-((4-methyl-5-(trifluoromethyl)-1H-pyrazol-3-yl)methyl)urea] returned an IC50 in series [1] of 0.0303 µM. In series [2], the CC50 at 65 h is more than 100 µM and the viability at 65 h, 100 µM came out at 94%.
The corresponding values for `COc1ncc(N(Cc2cc(C(F)(F)F)[nH]n2)C(=O)Nc2ccc(F)c(Cl)c2)c(C)n1` [Example 28, 3-(3-chloro-4-fluorophenyl)-1-(2-methoxy-4-methylpyrimidin-5-yl)-1-((5-(trifluoromethyl)-1H-pyrazol-3-yl)methyl)urea] are 0.06 µM, 47.2 µM and 7%.
In series [1], `CC(C)(O)c1ccc(N(Cc2n[nH]c3c2CCOC3)C(=O)Nc2ccc(F)c(Cl)c2)cn1` [Example 111, 3-(3-chloro-4-fluorophenyl)-1-(6-(2-hydroxypropan-2-yl)pyridin-3-yl)-1-((1,4,5,7-tetrahydropyrano[3,4-c]pyrazol-3-yl)methyl)urea] gave an IC50 of more than 1.1 µM. Also, in series [2], the CC50 at 65 h was more than 100 µM.
For the compound `COc1ncc(N(Cc2cc(C(F)(F)F)[nH]n2)C(=O)Nc2ccc(F)c(C#N)c2)cn1` [Example 154, 3-(3-cyano-4-fluorophenyl)-1-(2-methoxypyrimidin-5-yl)-1-((5-(trifluoromethyl)-1H-pyrazol-3-yl)methyl)urea], the half-maximal inhibitory concentration (IC50) in series [1] amounted to 0.013 µM. In series [2], the CC50 at 65 h is more than 100 µM and the viability at 65 h, 100 µM is 73%.
The corresponding values for `COc1cc(N(Cc2cc(C(F)F)[nH]n2)C(=O)Nc2ccc(F)c(C(F)F)c2)cnn1` [Example 201, 1-((5-(difluoromethyl)-1H-pyrazol-3-yl)methyl)-3-(3-(difluoromethyl)-4-fluorophenyl)-1-(6-methoxypyridazin-4-yl)urea] are 0.028 µM, more than 100 µM and 107%.
On the same counts, the results for `COc1nc(C)c(N(Cc2cc(C(F)(F)F)[nH]n2)C(=O)Nc2ccc(F)c(Cl)c2)c(C)n1` [Example 30, 3-(3-chloro-4-fluorophenyl)-1-(2-methoxy-4,6-dimethylpyrimidin-5-yl)-1-((5-(trifluoromethyl)-1H-pyrazol-3-yl)methyl)urea] are more than 1.1 µM, more than 100 µM and 52.4%.
`COc1ncc(N(Cc2cc(C(F)(F)F)[nH]n2)C(=O)Nc2nccc(-n3ccnc3)c2F)cn1` [Example 3, 3-(3-fluoro-4-(1H-imidazol-1-yl)pyridin-2-yl)-1-(2-methoxypyrimidin-5-yl)-1-((5-(trifluoromethyl)-1H-pyrazol-3-yl)methyl)urea]: the concentration for half-maximal inhibition (IC50) in series [1] was more than 1.1 µM. For the same compound, in series [2], the half-maximal cytotoxic concentration (CC50) at 65 h is more than 100 µM and the viability at 65 h, 100 µM came to 74.2%.
Turning to `COc1ncc(N(Cc2n[nH]c(C(F)(F)F)c2CCO)C(=O)Nc2ccc(F)c(C(F)F)c2)cn1` [Example 193, 3-(3-(difluoromethyl)-4-fluorophenyl)-1-((4-(2-hydroxyethyl)-5-(trifluoromethyl)-1H-pyrazol-3-yl)methyl)-1-(2-methoxypyrimidin-5-yl)urea], in series [1], the IC50 was determined as 0.18 µM. This compound also yielded a CC50 at 65 h in series [2] of more than 100 µM.
In turn, `COCCc1c(CN(C(=O)Nc2ccc(F)c(Cl)c2)c2ccc(OC)nc2)n[nH]c1C(F)F` [Example 88, 3-(3-chloro-4-fluorophenyl)-1-((5-(difluoromethyl)-4-(2-methoxyethyl)-1H-pyrazol-3-yl)methyl)-1-(6-methoxypyridin-3-yl)urea] had an IC50 in series [1] of more than 1.1 µM. Besides, in series [2], the CC50 at 65 h is more than 100 µM and the viability at 65 h, 100 µM came to 74.5%.
The corresponding values for `N#Cc1ccc(N(Cc2n[nH]c3c2CCOC3)C(=O)Nc2ccc(F)c(Cl)c2)cn1` [Example 127, 3-(3-chloro-4-fluorophenyl)-1-(6-cyanopyridin-3-yl)-1-((1,4,5,7-tetrahydropyrano[3,4-c]pyrazol-3-yl)methyl)urea] are 0.51 µM, more than 100 µM and 95%.
The corresponding values for `COc1ncc(N(Cc2cc(C(F)(F)F)[nH]n2)C(=O)Nc2cccc(C#N)n2)cn1` [Example 145, 3-(6-cyanopyridin-2-yl)-1-(2-methoxypyrimidin-5-yl)-1-((5-(trifluoromethyl)-1H-pyrazol-3-yl)methyl)urea] are more than 1.1 µM, more than 100 µM and 99.4%.
On the same counts, the results for `COc1ccc(N(Cc2n[nH]c3c2COC3)C(=O)Nc2ccc(F)c(Cl)c2)cn1` [Example 69, 3-(3-chloro-4-fluorophenyl)-1-((4,6-dihydro-1H-furo[3,4-c]pyrazol-3-yl)methyl)-1-(6-methoxypyridin-3-yl)urea] are 0.021 µM, more than 100 µM and 94.5%.
`COc1ncc(N(Cc2cc(C(F)(F)F)[nH]n2)C(=O)Nc2cc(Cl)c(F)cn2)cn1` [Example 89, 3-(4-chloro-5-fluoropyridin-2-yl)-1-(2-methoxypyrimidin-5-yl)-1-((5-(trifluoromethyl)-1H-pyrazol-3-yl)methyl)urea] displayed an IC50 in series [1] of 0.05 µM. For the same compound, in series [2], the cytotoxic concentration (CC50) at 65 h was more than 100 µM and the viability at 65 h, 100 µM came to 96%.
In series [1], `COc1ncc(N(Cc2n[nH]c(C(F)F)c2C(C)(C)O)C(=O)Nc2ccc(F)c(Cl)c2)cn1` [Example 92, 3-(3-chloro-4-fluorophenyl)-1-((5-(difluoromethyl)-4-(2-hydroxypropan-2-yl)-1H-pyrazol-3-yl)methyl)-1-(2-methoxypyrimidin-5-yl)urea] displayed a concentration for half-maximal inhibition (IC50) of more than 1.1 µM. In addition, in series [2], the 50% cytotoxic concentration (CC50) at 65 h is more than 100 µM.
As for `COc1ccc(N(Cc2nn(C)c3c2COCC3)C(=O)Nc2ccc(F)c(Cl)c2)cc1` [Example 39, 3-(3-chloro-4-fluorophenyl)-1-(4-methoxyphenyl)-1-((1-methyl-1,4,6,7-tetrahydropyrano[4,3-c]pyrazol-3-yl)methyl)urea], the IC50 in series [1] worked out at 0.33 µM. Besides, in series [2], the CC50 at 65 h is more than 100 µM and the viability at 65 h, 100 µM worked out at 96%.
`COc1ncc(N(Cc2cc(C#N)[nH]n2)C(=O)Nc2ccc(F)c(C(F)F)n2)cn1` [Example 212, 1-((5-cyano-1H-pyrazol-3-yl)methyl)-3-(6-(difluoromethyl)-5-fluoropyridin-2-yl)-1-(2-methoxypyrimidin-5-yl)urea]: it took 0.21 µM to reach half-maximal inhibition in series [1] (IC50). Moreover, in series [2], the CC50 at 65 h is more than 100 µM and the viability at 65 h, 100 µM was 99.4%.
On the same counts, the results for `COc1ncc(N(Cc2cc(C(F)(F)F)[nH]n2)C(=O)Nc2cncc(C(F)F)c2)cn1` [Example 174, 3-(5-(difluoromethyl)pyridin-3-yl)-1-(2-methoxypyrimidin-5-yl)-1-((5-(trifluoromethyl)-1H-pyrazol-3-yl)methyl)urea] are 0.48 µM, more than 100 µM and 96.2%.
The corresponding values for `COc1ncc(N(Cc2cc(C(F)(F)F)[nH]n2)C(=O)Nc2cc(F)c(F)c(F)c2)cn1` [Example 219, 1-(2-methoxypyrimidin-5-yl)-1-((5-(trifluoromethyl)-1H-pyrazol-3-yl)methyl)-3-(3,4,5-trifluorophenyl)urea] are 0.012 µM, more than 100 µM and 53.7%.
In series [1], `COc1ccc(N(Cc2cc(C(F)F)[nH]n2)C(=O)Nc2ccc(F)c(Cl)c2)nn1` [Example 97, 3-(3-chloro-4-fluorophenyl)-1-((5-(difluoromethyl)-1H-pyrazol-3-yl)methyl)-1-(6-methoxypyridazin-3-yl)urea] came in with an IC50 of more than 1.1 µM. In addition, in series [2], the half-maximal cytotoxic concentration (CC50) at 65 h was more than 100 µM and the viability at 65 h, 100 µM came out at 86.2%.
In turn, `COc1ncc(N(Cc2cc(C(F)F)[nH]n2)C(=O)Nc2ccc(F)c(C(F)F)n2)cn1` [Example 196, 1-((5-(difluoromethyl)-1H-pyrazol-3-yl)methyl)-3-(6-(difluoromethyl)-5-fluoropyridin-2-yl)-1-(2-methoxypyrimidin-5-yl)urea] showed an IC50 in series [1] of 0.16 µM. Further, in series [2], the midpoint of cytotoxicity, the CC50 at 65 h, lay at 76.4 µM and the viability at 65 h, 100 µM was 29.2%.
The corresponding values for `COc1cc(N(Cc2cc(C(F)(F)F)[nH]n2)C(=O)Nc2ccc(F)c(Cl)c2)cnc1C#N` [Example 118, 3-(3-chloro-4-fluorophenyl)-1-(6-cyano-5-methoxypyridin-3-yl)-1-((5-(trifluoromethyl)-1H-pyrazol-3-yl)methyl)urea] are more than 1.1 µM, less than 50 µM and 31.3%.
For the compound `COc1ncc(N(Cc2cc(C(F)(F)F)[nH]n2)C(=O)Nc2cccc(C(F)F)c2)cn1` [Example 176, 3-(3-(difluoromethyl)phenyl)-1-(2-methoxypyrimidin-5-yl)-1-((5-(trifluoromethyl)-1H-pyrazol-3-yl)methyl)urea], the concentration for half-maximal inhibition (IC50) in series [1] turned out to be 0.036 µM. Also, in series [2], the 50% cytotoxic concentration (CC50) at 65 h is more than 100 µM and the viability at 65 h, 100 µM amounted to 53.5%.
With `COc1ncc(N(Cc2cc(C(F)(F)F)[nH]n2)C(=O)Nc2ccnc(C(F)F)c2F)cn1` [Example 211, 3-(2-(difluoromethyl)-3-fluoropyridin-4-yl)-1-(2-methoxypyrimidin-5-yl)-1-((5-(trifluoromethyl)-1H-pyrazol-3-yl)methyl)urea], the IC50 in series [1] was 0.031 µM.
Compound `COc1ncc(N(Cc2cc(C(F)(F)F)[nH]n2)C(=O)Nc2ccnc(C#N)c2F)cn1` [Example 158, 3-(2-cyano-3-fluoropyridin-4-yl)-1-(2-methoxypyrimidin-5-yl)-1-((5-(trifluoromethyl)-1H-pyrazol-3-yl)methyl)urea] showed a half-maximal inhibitory concentration (IC50) in series [1] of 0.23 µM.
